Conditions: instrument: DT, single field, calibrated with ESI Low Concentration Tuning Mix (Agilent)

With `CCCCCCCCCCCCCCCCC(=O)[O-]` [HEPTADECANOATE] the “collision cross section (N2)” value ([M-H]-) was 172.9 Å².

With `Cc1cc2nc3c(=O)[nH]c(=O)nc-3n(C[C@H](O)[C@H](O)[C@H](O)COP(=O)(O)OP(=O)(O)OC[C@H]3O[C@@H](n4cnc5c(N)ncnc54)[C@H](O)[C@@H]3O)c2cc1C` [FAD] the “collision cross section (N2)” value ([M+H]+) was 249 Å², the “collision cross section (N2)” value ([M+Na-2H]-) was 256.2 Å² and the “collision cross section (N2)” value ([M+Na]+) was 250.3 Å². The “collision cross section (N2)” value ([M-H]-) was 238.7 Å².

For `O=P(O)(O)OC[C@H]1OC(O)[C@@H](O)[C@@H](O)[C@@H]1O` (stereo partly specified) [MANNOSE 6-PHOSPHATE], the “collision cross section (N2)” value ([M+Na-2H]-) was 156.7 Å², the “collision cross section (N2)” value ([M+Na]+) was 156.1 Å² and the “collision cross section (N2)” value ([M-H]-) was 146.2 Å².

For `CCC(C)C(=O)C(=O)O` (stereo unspecified) [3-METHYL-2-OXOVALERATE], the “collision cross section (N2)” value ([M-H]-) was 127.1 Å².

In the case of `NCCc1c[nH]c2ccc(O)cc12` [SEROTONIN], the “collision cross section (N2)” value ([M+Na]+) is reported as 146.9 Å².

With `OC[C@@H](O)C(O)[C@H](O)CO` [ARABITOL] the “collision cross section (N2)” value ([M+Na]+) was 135.8 Å² and the “collision cross section (N2)” value ([M-H]-) was 124.9 Å².

In the case of `Nc1ccn(C2O[C@H](CO)[C@H]3OP(=O)(O)O[C@@H]23)c(=O)n1` (stereo partly specified) [CYTIDINE 2',3'-CYCLIC PHOSPHATE], the “collision cross section (N2)” value ([M+H2O-H]-) is reported as 167.1 Å², the “collision cross section (N2)” value ([M+H]+) is reported as 163.3 Å² and the “collision cross section (N2)” value ([M+K]+) is reported as 168 Å². The “collision cross section (N2)” value ([M+Na-2H]-) was 165 Å², the “collision cross section (N2)” value ([M+Na]+) was 167.4 Å² and the “collision cross section (N2)” value ([M-H]-) was 164.5 Å².

For `CCCCC/C=C\C/C=C\C/C=C\CCCCC(=O)[O-]` [GAMMA-LINOLENATE], the “collision cross section (N2)” value ([M-H]-) was 174.8 Å².

For `O=P(O)(O)O[C@H]1O[C@H](CO)[C@H](O)[C@H](O)[C@H]1O` [GALACTOSE 1-PHOSPHATE], the “collision cross section (N2)” value ([M+K]+) was 158.5 Å², the “collision cross section (N2)” value ([M+Na]+) was 157.7 Å² and the “collision cross section (N2)” value ([M-H]-) was 148.2 Å².

In the case of `NCCS(=O)O` [HYPOTAURINE], the “collision cross section (N2)” value ([M+H]+) is reported as 125.4 Å² and the “collision cross section (N2)” value ([M-H]-) is reported as 132.6 Å².

For `Nc1ncnc2c1ncn2[C@@H]1O[C@H](CSCC[C@H](N)C(=O)O)[C@@H](O)[C@H]1O` [S-ADENOSYLHOMOCYSTEINE], the “collision cross section (N2)” value ([M+H]+) was 182.9 Å², the “collision cross section (N2)” value ([M+Na-2H]-) was 180.3 Å² and the “collision cross section (N2)” value ([M+Na]+) was 189 Å². The “collision cross section (N2)” value ([M-H]-) was 186.4 Å².

In the case of `Oc1ccccc1O` [PYROCATECHOL], the “collision cross section (N2)” value ([M-H]-) is reported as 114.5 Å².

In the case of `O=C1CC[C@@H](C(=O)O)N1` [PYROGLUTAMATE], the “collision cross section (N2)” value ([M+H]+) is reported as 130.1 Å².

In the case of `CC(=O)NC(CCCCN)C(=O)O` (stereo not drawn) [N-ALPHA-ACETYLLYSINE], the “collision cross section (N2)” value ([M+H]+) is reported as 145.5 Å², the “collision cross section (N2)” value ([M+Na]+) is reported as 144.4 Å² and the “collision cross section (N2)” value ([M-H]-) is reported as 145 Å².

In the case of `NC(=O)Cc1c[nH]c2ccccc12` [INDOLE-3-ACETAMIDE], the “collision cross section (N2)” value ([M+H]+) is reported as 137 Å², the “collision cross section (N2)” value ([M+Na]+) is reported as 143.4 Å² and the “collision cross section (N2)” value ([M-H]-) is reported as 135.5 Å².

With `CN(C)C(N)=NCCC[C@H](N)C(=O)O` [N,N-DIMETHYLARGININE] the “collision cross section (N2)” value ([M+H]+) was 143.9 Å² and the “collision cross section (N2)” value ([M+Na]+) was 157.2 Å².

For `O=C(O)[C@@H](O)[C@@H](O)[C@H](O)[C@@H](O)C(=O)O` [SACCHARATE], the “collision cross section (N2)” value ([M+K]+) was 148.8 Å², the “collision cross section (N2)” value ([M+Na-2H]-) was 137.3 Å² and the “collision cross section (N2)” value ([M+Na]+) was 148.3 Å². The “collision cross section (N2)” value ([M-H]-) was 133.3 Å².

In the case of `CO[C@@H]1O[C@H](CO)[C@H](O)[C@H](O)[C@H]1O` [METHYL GALACTOSIDE], the “collision cross section (N2)” value ([M+Na]+) is reported as 145.4 Å².

In the case of `OC[C@H]1OC(O)[C@H](O)[C@@H](O)[C@H]1O` (stereo partly specified) [GALACTOSE], the “collision cross section (N2)” value ([M+Na]+) is reported as 141.9 Å².

In the case of `CSCC[C@H](N)C(=O)O` [METHIONINE], the “collision cross section (N2)” value ([M+H]+) is reported as 133.1 Å² and the “collision cross section (N2)” value ([M-H]-) is reported as 132 Å².

For `O=C(O)c1ccnc2ccccc12` [4-QUINOLINECARBOXYLATE], the “collision cross section (N2)” value ([M+H]+) was 133.4 Å² and the “collision cross section (N2)” value ([M-H]-) was 134.3 Å².

In the case of `CC(=O)N[C@@H](CO)C(=O)O` [N-ACETYLSERINE], the “collision cross section (N2)” value ([M+Na]+) is reported as 133.4 Å² and the “collision cross section (N2)” value ([M-H]-) is reported as 127.2 Å².

For `O=Cc1cccc(O)c1` [3-HYDROXYBENZALDEHYDE], the “collision cross section (N2)” value ([M-H]-) was 118 Å².
